Laboratory results from PubChem BioAssay (NCI).
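The compound was tested at five concentrations on cells cultured in 96-well plates, with a 48-hour exposure period. Abbreviation: GI50, concentration required for 50% inhibition of growth. Definition used: TGI = concentration required for complete inhibition of growth.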 Where a SMILES comes first, the peptide text is derived from it. [ ]: non-standard residue; d: D form. The star is where a group is joined. ξ: configuration not given here. ξD = NC(CC(=O)O)C(=O)O; Ac3c = NC1(C(=O)O)CC1; Boc = CC(C)(C)OC(=O)*; OBn = c1ccc(CO*)cc1

Key:
Assay in all cases: inhibition of tumour cell growth, NCI panel, 48 h
[1] = system: 786-0 renal
[2] = system: UACC-257 melanoma
[3] = system: NCI/ADR-RES ovarian
[4] = system: IGROV1 ovarian
[5] = system: ACHN renal
[6] = system: MCF7 breast
[7] = system: SF-268 CNS
[8] = system: EKVX NSCLC
[9] = system: MDA-N
[10] = system: COLO 205 colon

Compound | TGI [1] [µM] | GI50 [2] [µM] | TGI [2] [µM] | GI50 [3] [µM] | TGI [3] [µM] | TGI [4] [µM] | GI50 [5] [µM] | TGI [5] [µM] | GI50 [6] [µM] | TGI [6] [µM] | GI50 [7] [µM] | TGI [7] [µM] | GI50 [8] [µM] | TGI [8] [µM] | GI50 [9] [µM] | TGI [9] [µM] | GI50 [10] [µM] | TGI [10] [µM]
Cc1cccc2nc3cccc(C(=O)NCCC[N+](C)(CCCNC(=O)c4cccc5nc6cccc(C)c6nc45)Cc4c([N+](=O)[O-])ncn4C)c3nc12 | > 1100 | 63 | > 1100 | 131 | > 1100 | > 1100 | 3.59 | > 1100 | 2.34 | 96.9 | 19.2 | > 1100 | 443 | > 1100 | 18.1 | > 1100 | 184 | > 1100
O=c1c2ccccc2n2nnc3ccc(NCCCNCCNCCCNc4ccc5nnn6c7ccccc7c(=O)c4c56)c1c32 | 21.3 | – | > 50 | – | > 25.5 | 8.58 | – | > 18 | – | 6.92 | – | > 26.6 | – | 20.3 | – | > 50 | – | > 50
N/N=C1/C(=N/O)CCc2nonc21 | > 100 | – | > 100 | – | > 100 | > 100 | – | > 100 | – | > 100 | – | > 100 | – | > 100 | – | > 100 | – | > 100
O=C(/C=C/c1ccc(-c2ccccc2)cc1)NCc1ccc(C(=O)NCCc2c[nH]c3ccccc23)cc1 | 26.7 | – | > 100 | – | > 100 | > 100 | – | > 100 | – | > 100 | – | > 100 | – | 94.8 | – | > 100 | – | > 100
C=CC(C)(C)N[C@@H](C(=O)N1CCC[C@H]1c1nc(-c2nc(C(=O)OCC=C(C)C)c(C)o2)c(C)o1)C(C)C | 44.5 | – | 38.4 | – | 59 | > 100 | – | 88.3 | – | 91.4 | – | 46.9 | – | > 100 | – | 38.4 | – | 52.1
C=CCN(c1cc(OCc2ccccc2)c(NC(C)=O)cc1[N+](=O)[O-])S(C)(=O)=O | 49.2 | – | > 100 | – | > 100 | 45.4 | – | > 100 | – | > 100 | – | 51.3 | – | 33.8 | – | > 100 | – | > 100
O=C1CCCC2=C1C(c1ccc3c(c1)OCO3)Nc1ccc3ccccc3c12 (stereo not drawn) | > 100 | – | > 100 | – | > 100 | > 100 | – | 65.7 | – | > 100 | – | > 100 | – | > 100 | – | > 100 | – | > 100
CCCC(CC)c1c(O)c(O)c(C(CC)CCC)c(C(CC)CCC)c1C(CC)CCC (stereo not drawn) | > 10 | – | > 10 | – | > 10 | > 10 | – | > 10 | – | > 10 | – | > 10 | – | > 10 | – | > 10 | – | > 10
COCN1CCN=c2c1c1c3c(c4ccccc4n23)CCC1 | > 100 | – | > 100 | – | > 100 | > 100 | – | > 100 | – | > 100 | – | > 100 | – | > 100 | – | > 100 | – | > 100
O=c1[nH]c2ccccc2nc1/C=C(\O)C(F)F | > 100 | – | > 100 | – | > 100 | > 100 | – | > 100 | – | > 100 | – | > 100 | – | > 100 | – | > 100 | – | > 100
Cc1cc(N=Cc2c(CO)cnc(C)c2O)c(N=Cc2c(CO)cnc(C)c2O)cc1C.[Zn] | > 100 | – | > 100 | – | > 100 | > 100 | – | > 100 | – | > 100 | – | > 100 | – | > 100 | – | > 100 | – | > 100
O=C(OCCN1CCCCC1)C(c1ccccc1)C1(O)CCSCC1 (stereo not drawn) | > 100 | – | > 100 | – | > 100 | > 100 | – | > 100 | – | > 100 | – | > 100 | – | > 100 | – | > 100 | – | > 100
CC(C)[C@H]1NC(=O)[C@H]2N=C(O[C@@H]2C)[C@@H]2CCCN2C(=O)[C@H](Cc2ccccc2)NC(=O)[C@@H]2CSC(=N2)[C@@H](Cc2ccccc2)NC(=O)[C@@H]2CSC1=N2 | > 100 | – | > 100 | – | > 100 | > 100 | – | > 100 | – | > 100 | – | > 100 | – | > 100 | – | > 100 | – | > 100
O=c1[nH]c2cc3cccnc3c(Cl)c2nc1C(F)(F)F | > 100 | – | > 100 | – | > 100 | > 100 | – | > 100 | – | > 100 | – | > 100 | – | > 100 | – | > 100 | – | > 100
N#Cc1c(N2CCCC2)ncn(Cc2ccccc2)c1=S | > 100 | – | > 100 | – | > 100 | > 100 | – | > 100 | – | > 100 | – | > 100 | – | > 100 | – | > 100 | – | > 100
COC(=O)c1ccccc1C#CCCCOS(C)(=O)=O | > 10 | – | > 10 | – | > 10 | > 10 | – | > 10 | – | > 10 | – | > 10 | – | > 10 | – | > 10 | – | > 10
NCCNCCCCCCNC(=O)c1cccc2cc3ccccc3nc12 | 2.88 | – | 15.2 | – | 38.4 | 17.2 | – | 5.98 | – | 5.39 | – | 9.93 | – | 20.9 | – | 7.13 | – | 13.2
O=C1C=C2CO[C@H]3OC[C@H](O)[C@@H]1[C@@H]23 | > 100 | – | 86.4 | – | > 100 | > 100 | – | > 100 | – | > 100 | – | > 100 | – | > 100 | – | > 100 | – | 30

Compound | TGI [1] [µM] | GI50 [2] [µM] | TGI [2] [µM] | GI50 [3] [µM] | TGI [3] [µM] | TGI [4] [µM] | GI50 [5] [µM] | TGI [5] [µM] | GI50 [6] [µM] | TGI [6] [µM] | GI50 [7] [µM] | TGI [7] [µM] | GI50 [8] [µM] | TGI [8] [µM] | GI50 [9] [µM] | TGI [9] [µM] | GI50 [10] [µM] | TGI [10] [µM]
CC(C)(C)OC(=O)NC(Cc1ccc(O)cn1)C(N)=O (stereo not drawn) | > 100 | – | > 100 | – | > 100 | > 100 | – | > 100 | – | > 100 | – | > 100 | – | > 100 | – | > 100 | – | > 100
NS(=O)(=O)c1ccc(Nc2c3ccccc3nc3c(C(=O)NCCCN(CCO)CCO)cccc23)cc1 | 45.2 | – | 67.6 | – | > 100 | 68.2 | – | > 100 | – | 20.1 | – | 45.5 | – | > 100 | – | 41.9 | – | 30.2
CC(C)(C)n1c(=O)n(C(=O)C(Cl)(Cl)Cl)n(C(=O)C(Cl)(Cl)Cl)c1=O | > 100 | – | > 100 | – | > 100 | > 100 | – | > 100 | – | > 100 | – | > 100 | – | > 100 | – | > 100 | – | > 100
Cc1cc2ccccc2n1CC(=O)N1CCCC1 | > 100 | – | > 100 | – | > 100 | > 100 | – | > 100 | – | > 100 | – | > 100 | – | > 100 | – | > 100 | – | > 100
O=C(CN1CCCCC1)c1ccc2c(c1)Sc1ccccc1O2 | 33.2 | – | 39.6 | – | 35 | 23.5 | – | 27.7 | – | 30.9 | – | 33.9 | – | 36.1 | – | 34.5 | – | 61.1
COc1ccc2c(c1)nc1n2C(N)=Nc2ccccc2S1 | > 34.1 | – | > 100 | – | > 100 | > 100 | – | > 100 | – | > 100 | – | > 100 | – | > 100 | – | > 100 | – | > 100
COC(=O)C1(NC(=O)C(CC(=O)OCc2ccccc2)NC(=O)OC(C)(C)C)CC1 (stereo not drawn) (Boc-[ξD](OBn)-[Ac3c]-OMe) | > 100 | – | > 100 | – | > 100 | > 100 | – | > 100 | – | > 100 | – | > 100 | – | > 100 | – | > 100 | – | > 100
COc1ccc(/C=C(\C(=C/c2ccc(OC)cc2)[N+](=O)[O-])[N+](=O)[O-])cc1 | 4.96 | – | 17.1 | – | 7.94 | 15.4 | – | 17.1 | – | 27.3 | – | 20.8 | – | 29.8 | – | 8.89 | – | 21.6
Cc1ccc(C)c(COCCOCn2cc(Br)c(N)nc2=O)c1 | > 100 | – | > 100 | – | > 100 | > 100 | – | > 100 | – | > 100 | – | > 100 | – | > 100 | – | > 100 | – | > 100
COc1c(OC)c(O)c2c(=O)c(OC)c(-c3ccc4c(c3)OCO4)oc2c1O | > 100 | – | > 100 | – | > 100 | > 100 | – | > 100 | – | > 100 | – | > 100 | – | > 100 | – | > 100 | – | > 100
CC(=Nc1c2ccccc2nc2ccccc12)N(C)C | > 100 | – | 43.5 | – | 54.8 | > 100 | – | 76.4 | – | 78.8 | – | > 100 | – | > 100 | – | 90.3 | – | 25.2
Cc1ccc(NC(=S)Nc2c(C)n(C)n(-c3ccccc3)c2=O)cc1 | > 100 | – | > 100 | – | > 100 | > 100 | – | > 100 | – | > 100 | – | > 100 | – | > 100 | – | > 100 | – | > 100
Cc1cc(NS(=O)(=O)c2ccc(NC(=O)c3cccc4c(NNc5ccc(S(=O)(=O)N=C(N)N)cc5)c5ccccc5nc34)cc2)no1 | > 100 | – | > 100 | – | > 100 | > 100 | – | > 100 | – | > 100 | – | > 100 | – | 93.2 | – | > 100 | – | > 100
N#CC(C#N)=Cc1c(O)ccc2ccccc12 | 33 | – | 32.6 | – | 64.7 | 39.4 | – | 23.9 | – | 34.3 | – | 33.1 | – | 26.3 | – | 30.5 | – | 44.5
CCOC(=O)C1=C(C)C(C(=O)OC)/C(=C/c2cccc3cccnc23)C1=O (stereo not drawn) | > 10 | – | > 10 | – | > 10 | > 10 | – | > 10 | – | > 10 | – | > 10 | – | > 10 | – | > 10 | – | > 10
COC(=O)/C=C\C(C#N)(C#N)N=Cc1ccc(C)s1 | 3.2 | – | 7.71 | – | 28.7 | 4.94 | – | 3.66 | – | 4.05 | – | 19.1 | – | 15.3 | – | 6.94 | – | 2.93
Cc1cc(Nc2ccc(N=Nc3ccc(O)c4ncccc34)cc2)nc(C)n1 | 54.2 | – | 43.8 | – | 61 | 32 | – | > 77.9 | – | 52.2 | – | > 51.9 | – | > 79.3 | – | 42.8 | – | 40.4
